1 molecule from patent publication US5686448A (priority 1995, dated 1997) can be followed below.

Series [1] concerns Vero cells. The following applies: 25 mg/ml, 48 hours. How it is done: To determine the toxicity level of the drug, all three cell lines--RK-13, Vero cells, and WISH cells--were used. In the toxicity experiments, the effect of the drug on the uninfected cell for a range of periods of time was determined. Accordingly, cultures were incubated with and without the drug. The time of exposure was from one to seven hours. A comparison was then made between the drug tested cultures and the control cultures. After each period of incubation, the cells were washed and fresh media was added to the cells. The cell viability was then determined by dividing these cultures and having them grow into new cell cultures.
At the end of the incubation period, the cultures were washed twice with sterile PBS (Dulbecco). Fresh medium was added to each of the cultures. The cultures were then incubated for an additional 24 hours.
(§1) Healthy confluent monolayer cell cultures were overlaid with 1 ml of the drug and incubated for 48 hours at 37° C. and then stained. Cell cultures with maintenance media were used as controls.

The test system of series [2] is Flow 1000 cells (foreskin cells). The settings on record: 25 mg/ml, 48 hours. How it is done: as §1
Series [3] relates to RK-13 cells. The settings on record: 25 mg/ml, 48 hours.
In series [4] the test system is HSV-2 (333 strain). Put plainly: HMB plaque inhibition in infected Vero cells (Exp. 1M-1P). It is filed as cell-based. How it is done:
In this experiment, 25 mg/ml HMB was tested on Vero cells infected with HSV-2. The virus control cultures, without HMB, had 705 plaque.
The number of plaque on the virus control was about 10 to 12 plaque.
In this experiment, 25 mg/ml, 20 mg/ml, and 15 mg/ml of HMB concentrations were tested on Vero cells infected with HSV-2. […] The experimental flasks had as many, or more, plaque as the control, with an average of 154 plaque for the control and 169 plaque for the HMB-treated flasks.

As for `C[N+](C)(C)CCCCCC[N+](C)(C)C` [HMB, hexamethonium bromide], the toxicity entry is on record as “no toxicity” in series [1], “no toxicity” in series [2] and “slight toxicity” in series [3]. Moreover, in series [4] (Exp. 1M, 25 mg/ml), the cell layer appearance result is reported as “thin cell layer”. In addition, in series [4] (Exp. 1N, 20 mg/ml, control about 10 to 12), the plaque inhibition entry is recorded as “complete inhibition of plaque”. Moreover, the effect on plaque result in series [4] (Exp. 1O, 15 mg/ml) is “did not have any effect”. Moreover, the average plaque number in series [4] (Exp. 1O, 15 mg/ml, control 154) turned out to be 169 plaque. The plaque formation result in series [4] (Exp. 1O, 20 mg/ml) was “no plaque”; in series [4] (Exp. 1O, 25 mg/ml, most likely due to toxicity), “no plaque”. For the same molecule, the toxicity to monolayer result in series [4] (Exp. 1O, 25 mg/ml) is “toxic to the monolayer”. Also, the “inhibition of in vitro replication” value in series [4] (HMB, Example No. 1 summary) is “inhibit the in vitro replication of HSV-1 and HSV-2”.
